Test [1] concerns the target Neuronal acetylcholine receptor subunit alpha-7 (Homo sapiens, UniProt P36544). As to the kind of experiment: Binding affinity towards human nicotinic acetylcholine receptor alpha 7 expressed in GH4C1 cell using [3H]methyllycaconitine. Type of test: cell-based, GH4-C1.
The target in test [2] is Serotonin 3 (5-HT3) receptor. Briefly: Binding affinity towards human 5-hydroxytryptamine 3 serotonin membrane receptor using [3H]GR-65630 at 10 uM.
Test [3] deals with Serotonin 3 (5-HT3) receptor. Briefly: Binding affinity for human 5-hydroxytryptamine 3 serotonin membrane receptor using [3H]GR-65630.

Chain of Neuronal acetylcholine receptor subunit alpha-7 (P36544 whole entry): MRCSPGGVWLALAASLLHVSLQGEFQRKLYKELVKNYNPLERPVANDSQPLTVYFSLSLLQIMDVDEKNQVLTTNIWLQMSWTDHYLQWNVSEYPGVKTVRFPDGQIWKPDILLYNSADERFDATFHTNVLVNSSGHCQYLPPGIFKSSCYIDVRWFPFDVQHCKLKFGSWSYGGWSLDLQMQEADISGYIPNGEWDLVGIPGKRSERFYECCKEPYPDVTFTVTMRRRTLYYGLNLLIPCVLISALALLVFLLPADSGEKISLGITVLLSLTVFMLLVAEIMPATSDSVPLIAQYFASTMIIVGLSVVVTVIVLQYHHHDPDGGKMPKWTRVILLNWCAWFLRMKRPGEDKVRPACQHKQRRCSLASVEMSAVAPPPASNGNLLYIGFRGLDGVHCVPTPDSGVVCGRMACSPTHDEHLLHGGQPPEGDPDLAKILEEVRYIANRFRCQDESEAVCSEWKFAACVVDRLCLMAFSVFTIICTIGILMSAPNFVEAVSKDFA

`O=C(NC1CN2CCC1CC2)c1ccc(-c2ccccc2Cl)s1` (stereo not given) returned a Ki in test [1] of 525 nM. In test [2], this molecule returned an inhibition of 45%.

`O=C(NC1CN2CCC1CC2)c1csc(-c2ccccc2)c1` (stereo not given): the Ki in test [1] amounted to 16.7 nM; in test [3], 409 nM.

As to `O=C1NC[C@]2(CN3CCC2CC3)O1`, in test [2], the inhibition came to 2.5%.

As to `CCN1C[C@]2(COC(=O)c3ccccc3N3C(=O)C[C@H](C)C3=O)CC[C@H](OC)[C@@]34[C@@H]5C[C@H]6[C@H](OC)[C@@H]5[C@](O)(C[C@@H]6OC)[C@](O)([C@@H](OC)[C@H]23)[C@@H]14` [METHYLLYCACONITINE], in test [1], the Ki is 7.3 nM. In test [2], this molecule returned an inhibition of 16.5%.

Turning to `O=C(NC1CN2CCC1CC2)c1cc(-c2ccccc2)sn1` (stereo not given), in test [1], the Ki is 4.1 nM. Also, in test [2], the inhibition was 28%.

Consider `c1cncc(CNc2cnc3c(c2)C[C@@]2(CN4CCC2CC4)O3)c1`, for which, in test [3], the Ki turned out to be 2220 nM.

As to `CC(=O)O.O=C(N[C@H]1CN2CCC1CC2)c1ccc(-c2ccccc2)s1`, the Ki in test [1] is 1.8 nM. Moreover, in test [2], the inhibition is given as 24%.

In test [1], `O=C(N[C@H]1CN2CCC1CC2)c1ccc(-c2ccccn2)s1` gave a Ki of 1.3 nM. In test [2], this molecule showed an inhibition of 15.5%.

On to `O=C(NC1CN2CCC1CC2)c1ccc(-c2ccccc2)s1` (stereo not given), for which the Ki came to 3.4 nM in test [1] and 2020 nM in test [3].

As to `c1ccc(-c2cnc3c(c2)C[C@@]2(CN4CCC2CC4)O3)cc1`, the values for the Ki in test [1] and in test [3] were 3.1 nM and 73 nM, respectively.

With `O=C(NC1CN2CCC1CC2)c1csc(-c2ccccc2)n1` (stereo not given), the Ki came to 121 nM in test [1] and 665 nM in test [3].

As for `COc1ccccc1-c1ccc(C(=O)NC2CN3CCC2CC3)s1` (stereo not given), affinity in test [1] was put at a Ki of 268 nM. The molecule also yielded an inhibition in test [2] of 27%.

`O=C(NC1CN2CCC1CC2)c1ccc(-c2cccs2)s1` (stereo not given): the Ki in test [1] is 1.1 nM; in test [3], 1040 nM.

Consider `O=C(N[C@@H]1CN2CCC1CC2)c1ccc(-c2ccccc2)s1`, for which the Ki in test [1] amounted to 26.9 nM; in test [3] it was 1550 nM.

As for `O=C(N[C@H]1CN2CCC1CC2)c1ccc(-c2ccccc2)s1` (racemic), the figures for the Ki in test [1] and in test [3] were 3.4 nM and 2020 nM, respectively.

The molecule `O=C(NC1CN2CCC1CC2)c1ccc(-c2ccccn2)s1` (stereo not given) came in with a Ki in test [1] of 6.9 nM. In test [2], this molecule came in with an inhibition of 28%.

By Ki is commonly meant a dissociation constant, usually derived from enzyme kinetics or from competition with a known ligand. As a reminder, the inhibition is how much of the control response was suppressed.

The values are drawn from ChEMBL document CHEMBL1143459, “High affinity ligands for the alpha7 nicotinic receptor that show no cross-reactivity with the 5-HT3 receptor” (Bioorg Med Chem Lett, 2005).
